# In the supplement of paper PMC10307832:
# Assays:
# Test in all cases: relative viability (nuclei count vs DMSO), 5 days (fraction); higher = more cells survive
# A-427 = system: A-427
# Method in brief: (§1)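 For relative viability, nuclei counts in treated wells were divided by those in vehicle wells. Lung cancer cell lines had been pin-tool dosed in 1536-well plates the day after seeding and cultured for 5 days, then fixed and stained in one step (final 0.05% Triton X-100, 1% formaldehyde, 1 ug/ml Hoechst) and imaged at 4×. Doses were one drug alone or a fixed anchor-drug dose plus five library-drug doses (not always all listed) in √10 steps, and values are duplicate-plate medians.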
# HCC-15 = system: HCC-15
# Method in brief: as §1
# HCC-78 = system: HCC-78
# Method in brief: as §1
# HOP-62 = system: HOP-62
# Method in brief: as §1
# LC-2-ad = system: LC-2-ad
# Method in brief: as §1
# LXF-289 = system: LXF-289
# Method in brief: as §1
# NCI-H1734 = system: NCI-H1734
# Method in brief: as §1
# NCI-H1755 = system: NCI-H1755
# Method in brief: as §1
# NCI-H1792 = system: NCI-H1792
# Method in brief: as §1
# NCI-H1915 = system: NCI-H1915
# Method in brief: as §1
# NCI-H1975 = system: NCI-H1975
# Method in brief: as §1
# NCI-H2126 = system: NCI-H2126
# Method in brief: as §1
# NCI-H2228 = system: NCI-H2228
# Method in brief: as §1
# NCI-H2347 = system: NCI-H2347
# Method in brief: as §1
# NCI-H358 = system: NCI-H358
# Method in brief: as §1
# NCI-H647 = system: NCI-H647
# Method in brief: as §1
# PC-3 [JPC-3] = system: PC-3 [JPC-3]
# Method in brief: as §1
# RERF-LC-KJ = system: RERF-LC-KJ
# Method in brief: as §1
# SK-LU-1 = system: SK-LU-1
# Method in brief: as §1
# SW 1573 = system: SW 1573
# Method in brief: as §1
smiles,measurement,setting,value
Nc1ccn([C@@H]2O[C@H](CO)[C@@H](O)[C@@H]2O)c(=O)n1 [Cytarabine] + CS(=O)(=O)N1CCN(Cc2cc3nc(-c4cccc5[nH]ncc45)nc(N4CCOCC4)c3s2)CC1 [Pictilisib] (partner 1 µM),relative viability,A-427; first compound 0.005 µM,0.576
same,relative viability,A-427; first compound 0.01581 µM,0.419
same,relative viability,A-427; first compound 0.05 µM,0.314
same,relative viability,A-427; first compound 0.1581 µM,0.178
same,relative viability,A-427; first compound 0.5 µM,0.147
same,relative viability,HCC-15; first compound 0.005 µM,0.709
same,relative viability,HCC-15; first compound 0.01581 µM,0.704
same,relative viability,HCC-15; first compound 0.05 µM,0.672
same,relative viability,HCC-15; first compound 0.1581 µM,0.504
same,relative viability,HCC-15; first compound 0.5 µM,0.453
same,relative viability,HCC-78; first compound 0.005 µM,0.234
same,relative viability,HCC-78; first compound 0.01581 µM,0.196
same,relative viability,HCC-78; first compound 0.05 µM,0.139
same,relative viability,HCC-78; first compound 0.1581 µM,0.141
same,relative viability,HCC-78; first compound 0.5 µM,0.128
same,relative viability,HOP-62; first compound 0.005 µM,0.741
same,relative viability,HOP-62; first compound 0.01581 µM,0.469
same,relative viability,HOP-62; first compound 0.05 µM,0.315
same,relative viability,HOP-62; first compound 0.1581 µM,0.118
same,relative viability,HOP-62; first compound 0.5 µM,0.0794
same,relative viability,LC-2-ad; first compound 0.005 µM,0.402
same,relative viability,LC-2-ad; first compound 0.01581 µM,0.419
same,relative viability,LC-2-ad; first compound 0.05 µM,0.361
same,relative viability,LC-2-ad; first compound 0.1581 µM,0.212
same,relative viability,LC-2-ad; first compound 0.5 µM,0.16
same,relative viability,LXF-289; first compound 0.005 µM,0.716
same,relative viability,LXF-289; first compound 0.01581 µM,0.752
same,relative viability,LXF-289; first compound 0.05 µM,0.679
same,relative viability,LXF-289; first compound 0.1581 µM,0.288
same,relative viability,LXF-289; first compound 0.5 µM,0.304
same,relative viability,NCI-H1734; first compound 0.005 µM,0.365
same,relative viability,NCI-H1734; first compound 0.01581 µM,0.217
same,relative viability,NCI-H1734; first compound 0.05 µM,0.213
same,relative viability,NCI-H1734; first compound 0.1581 µM,0.147
same,relative viability,NCI-H1734; first compound 0.5 µM,0.118
same,relative viability,NCI-H1755; first compound 0.005 µM,0.378
same,relative viability,NCI-H1755; first compound 0.01581 µM,0.417
same,relative viability,NCI-H1755; first compound 0.05 µM,0.359
same,relative viability,NCI-H1755; first compound 0.1581 µM,0.223
same,relative viability,NCI-H1755; first compound 0.5 µM,0.191
same,relative viability,NCI-H1792; first compound 0.005 µM,0.314
same,relative viability,NCI-H1792; first compound 0.01581 µM,0.207
same,relative viability,NCI-H1792; first compound 0.05 µM,0.216
same,relative viability,NCI-H1792; first compound 0.1581 µM,0.174
same,relative viability,NCI-H1792; first compound 0.5 µM,0.188
same,relative viability,NCI-H1915; first compound 0.005 µM,0.866
same,relative viability,NCI-H1915; first compound 0.01581 µM,0.853
same,relative viability,NCI-H1915; first compound 0.05 µM,0.589
same,relative viability,NCI-H1915; first compound 0.1581 µM,0.274
same,relative viability,NCI-H1915; first compound 0.5 µM,0.233
same,relative viability,NCI-H1975; first compound 0.005 µM,0.271
same,relative viability,NCI-H1975; first compound 0.01581 µM,0.281
same,relative viability,NCI-H1975; first compound 0.05 µM,0.311
same,relative viability,NCI-H1975; first compound 0.1581 µM,0.289
same,relative viability,NCI-H1975; first compound 0.5 µM,0.195
same,relative viability,NCI-H2126; first compound 0.005 µM,0.441
same,relative viability,NCI-H2126; first compound 0.01581 µM,0.432
same,relative viability,NCI-H2126; first compound 0.05 µM,0.382
same,relative viability,NCI-H2126; first compound 0.1581 µM,0.312
same,relative viability,NCI-H2126; first compound 0.5 µM,0.29
same,relative viability,NCI-H2228; first compound 0.005 µM,0.29
same,relative viability,NCI-H2228; first compound 0.01581 µM,0.188
same,relative viability,NCI-H2228; first compound 0.05 µM,0.399
same,relative viability,NCI-H2228; first compound 0.1581 µM,0.109
same,relative viability,NCI-H2228; first compound 0.5 µM,0.146
same,relative viability,NCI-H2347; first compound 0.005 µM,0.536
same,relative viability,NCI-H2347; first compound 0.01581 µM,0.811
same,relative viability,NCI-H2347; first compound 0.05 µM,0.778
same,relative viability,NCI-H2347; first compound 0.1581 µM,0.482
same,relative viability,NCI-H2347; first compound 0.5 µM,0.588
same,relative viability,NCI-H358; first compound 0.005 µM,0.318
same,relative viability,NCI-H358; first compound 0.01581 µM,0.288
same,relative viability,NCI-H358; first compound 0.05 µM,0.298
same,relative viability,NCI-H358; first compound 0.1581 µM,0.179
same,relative viability,NCI-H358; first compound 0.5 µM,0.155
same,relative viability,NCI-H647; first compound 0.005 µM,0.39
same,relative viability,NCI-H647; first compound 0.01581 µM,0.212
same,relative viability,NCI-H647; first compound 0.05 µM,0.159
same,relative viability,NCI-H647; first compound 0.1581 µM,0.0808
same,relative viability,NCI-H647; first compound 0.5 µM,0.0843
same,relative viability,PC-3 [JPC-3]; first compound 0.005 µM,0.695
same,relative viability,PC-3 [JPC-3]; first compound 0.01581 µM,0.673
same,relative viability,PC-3 [JPC-3]; first compound 0.05 µM,0.647
same,relative viability,PC-3 [JPC-3]; first compound 0.1581 µM,0.448
same,relative viability,PC-3 [JPC-3]; first compound 0.5 µM,0.479
same,relative viability,RERF-LC-KJ; first compound 0.005 µM,0.493
same,relative viability,RERF-LC-KJ; first compound 0.01581 µM,0.459
same,relative viability,RERF-LC-KJ; first compound 0.05 µM,0.487
same,relative viability,RERF-LC-KJ; first compound 0.1581 µM,0.428
same,relative viability,RERF-LC-KJ; first compound 0.5 µM,0.287
same,relative viability,SK-LU-1; first compound 0.005 µM,0.519
same,relative viability,SK-LU-1; first compound 0.01581 µM,0.515
same,relative viability,SK-LU-1; first compound 0.05 µM,0.333
same,relative viability,SK-LU-1; first compound 0.1581 µM,0.216
same,relative viability,SK-LU-1; first compound 0.5 µM,0.216
same,relative viability,SW 1573; first compound 0.005 µM,0.362
same,relative viability,SW 1573; first compound 0.01581 µM,0.378
same,relative viability,SW 1573; first compound 0.05 µM,0.317
same,relative viability,SW 1573; first compound 0.1581 µM,0.134
same,relative viability,SW 1573; first compound 0.5 µM,0.106
